{
  "source": "paper doi:10.1101/2023.07.03.547578v2",
  "about": "(bioRxiv, 2023)",
  "key": {"Casq2-/- mice [1]": {"system": "Casq2-/- mice", "assay": "Catecholamine-induced arrhythmia challenge", "format": "in vivo, mouse", "details": "3 and 30 mg/kg i.p., ECG"}, "Stability in plasma": {"assay": "Stability in plasma", "format": "in vitro ADME", "details": "abstract; method not given"}, "[2]": {"details": "ref Smith et al., 2021; cited from earlier work"}, "RyR2 [3]": {"target": "T1, RyR2 (Sus scrofa, UniProt A0A5G2R1W3)", "T1 sequence (A0A5G2R1W3 20-4900)": "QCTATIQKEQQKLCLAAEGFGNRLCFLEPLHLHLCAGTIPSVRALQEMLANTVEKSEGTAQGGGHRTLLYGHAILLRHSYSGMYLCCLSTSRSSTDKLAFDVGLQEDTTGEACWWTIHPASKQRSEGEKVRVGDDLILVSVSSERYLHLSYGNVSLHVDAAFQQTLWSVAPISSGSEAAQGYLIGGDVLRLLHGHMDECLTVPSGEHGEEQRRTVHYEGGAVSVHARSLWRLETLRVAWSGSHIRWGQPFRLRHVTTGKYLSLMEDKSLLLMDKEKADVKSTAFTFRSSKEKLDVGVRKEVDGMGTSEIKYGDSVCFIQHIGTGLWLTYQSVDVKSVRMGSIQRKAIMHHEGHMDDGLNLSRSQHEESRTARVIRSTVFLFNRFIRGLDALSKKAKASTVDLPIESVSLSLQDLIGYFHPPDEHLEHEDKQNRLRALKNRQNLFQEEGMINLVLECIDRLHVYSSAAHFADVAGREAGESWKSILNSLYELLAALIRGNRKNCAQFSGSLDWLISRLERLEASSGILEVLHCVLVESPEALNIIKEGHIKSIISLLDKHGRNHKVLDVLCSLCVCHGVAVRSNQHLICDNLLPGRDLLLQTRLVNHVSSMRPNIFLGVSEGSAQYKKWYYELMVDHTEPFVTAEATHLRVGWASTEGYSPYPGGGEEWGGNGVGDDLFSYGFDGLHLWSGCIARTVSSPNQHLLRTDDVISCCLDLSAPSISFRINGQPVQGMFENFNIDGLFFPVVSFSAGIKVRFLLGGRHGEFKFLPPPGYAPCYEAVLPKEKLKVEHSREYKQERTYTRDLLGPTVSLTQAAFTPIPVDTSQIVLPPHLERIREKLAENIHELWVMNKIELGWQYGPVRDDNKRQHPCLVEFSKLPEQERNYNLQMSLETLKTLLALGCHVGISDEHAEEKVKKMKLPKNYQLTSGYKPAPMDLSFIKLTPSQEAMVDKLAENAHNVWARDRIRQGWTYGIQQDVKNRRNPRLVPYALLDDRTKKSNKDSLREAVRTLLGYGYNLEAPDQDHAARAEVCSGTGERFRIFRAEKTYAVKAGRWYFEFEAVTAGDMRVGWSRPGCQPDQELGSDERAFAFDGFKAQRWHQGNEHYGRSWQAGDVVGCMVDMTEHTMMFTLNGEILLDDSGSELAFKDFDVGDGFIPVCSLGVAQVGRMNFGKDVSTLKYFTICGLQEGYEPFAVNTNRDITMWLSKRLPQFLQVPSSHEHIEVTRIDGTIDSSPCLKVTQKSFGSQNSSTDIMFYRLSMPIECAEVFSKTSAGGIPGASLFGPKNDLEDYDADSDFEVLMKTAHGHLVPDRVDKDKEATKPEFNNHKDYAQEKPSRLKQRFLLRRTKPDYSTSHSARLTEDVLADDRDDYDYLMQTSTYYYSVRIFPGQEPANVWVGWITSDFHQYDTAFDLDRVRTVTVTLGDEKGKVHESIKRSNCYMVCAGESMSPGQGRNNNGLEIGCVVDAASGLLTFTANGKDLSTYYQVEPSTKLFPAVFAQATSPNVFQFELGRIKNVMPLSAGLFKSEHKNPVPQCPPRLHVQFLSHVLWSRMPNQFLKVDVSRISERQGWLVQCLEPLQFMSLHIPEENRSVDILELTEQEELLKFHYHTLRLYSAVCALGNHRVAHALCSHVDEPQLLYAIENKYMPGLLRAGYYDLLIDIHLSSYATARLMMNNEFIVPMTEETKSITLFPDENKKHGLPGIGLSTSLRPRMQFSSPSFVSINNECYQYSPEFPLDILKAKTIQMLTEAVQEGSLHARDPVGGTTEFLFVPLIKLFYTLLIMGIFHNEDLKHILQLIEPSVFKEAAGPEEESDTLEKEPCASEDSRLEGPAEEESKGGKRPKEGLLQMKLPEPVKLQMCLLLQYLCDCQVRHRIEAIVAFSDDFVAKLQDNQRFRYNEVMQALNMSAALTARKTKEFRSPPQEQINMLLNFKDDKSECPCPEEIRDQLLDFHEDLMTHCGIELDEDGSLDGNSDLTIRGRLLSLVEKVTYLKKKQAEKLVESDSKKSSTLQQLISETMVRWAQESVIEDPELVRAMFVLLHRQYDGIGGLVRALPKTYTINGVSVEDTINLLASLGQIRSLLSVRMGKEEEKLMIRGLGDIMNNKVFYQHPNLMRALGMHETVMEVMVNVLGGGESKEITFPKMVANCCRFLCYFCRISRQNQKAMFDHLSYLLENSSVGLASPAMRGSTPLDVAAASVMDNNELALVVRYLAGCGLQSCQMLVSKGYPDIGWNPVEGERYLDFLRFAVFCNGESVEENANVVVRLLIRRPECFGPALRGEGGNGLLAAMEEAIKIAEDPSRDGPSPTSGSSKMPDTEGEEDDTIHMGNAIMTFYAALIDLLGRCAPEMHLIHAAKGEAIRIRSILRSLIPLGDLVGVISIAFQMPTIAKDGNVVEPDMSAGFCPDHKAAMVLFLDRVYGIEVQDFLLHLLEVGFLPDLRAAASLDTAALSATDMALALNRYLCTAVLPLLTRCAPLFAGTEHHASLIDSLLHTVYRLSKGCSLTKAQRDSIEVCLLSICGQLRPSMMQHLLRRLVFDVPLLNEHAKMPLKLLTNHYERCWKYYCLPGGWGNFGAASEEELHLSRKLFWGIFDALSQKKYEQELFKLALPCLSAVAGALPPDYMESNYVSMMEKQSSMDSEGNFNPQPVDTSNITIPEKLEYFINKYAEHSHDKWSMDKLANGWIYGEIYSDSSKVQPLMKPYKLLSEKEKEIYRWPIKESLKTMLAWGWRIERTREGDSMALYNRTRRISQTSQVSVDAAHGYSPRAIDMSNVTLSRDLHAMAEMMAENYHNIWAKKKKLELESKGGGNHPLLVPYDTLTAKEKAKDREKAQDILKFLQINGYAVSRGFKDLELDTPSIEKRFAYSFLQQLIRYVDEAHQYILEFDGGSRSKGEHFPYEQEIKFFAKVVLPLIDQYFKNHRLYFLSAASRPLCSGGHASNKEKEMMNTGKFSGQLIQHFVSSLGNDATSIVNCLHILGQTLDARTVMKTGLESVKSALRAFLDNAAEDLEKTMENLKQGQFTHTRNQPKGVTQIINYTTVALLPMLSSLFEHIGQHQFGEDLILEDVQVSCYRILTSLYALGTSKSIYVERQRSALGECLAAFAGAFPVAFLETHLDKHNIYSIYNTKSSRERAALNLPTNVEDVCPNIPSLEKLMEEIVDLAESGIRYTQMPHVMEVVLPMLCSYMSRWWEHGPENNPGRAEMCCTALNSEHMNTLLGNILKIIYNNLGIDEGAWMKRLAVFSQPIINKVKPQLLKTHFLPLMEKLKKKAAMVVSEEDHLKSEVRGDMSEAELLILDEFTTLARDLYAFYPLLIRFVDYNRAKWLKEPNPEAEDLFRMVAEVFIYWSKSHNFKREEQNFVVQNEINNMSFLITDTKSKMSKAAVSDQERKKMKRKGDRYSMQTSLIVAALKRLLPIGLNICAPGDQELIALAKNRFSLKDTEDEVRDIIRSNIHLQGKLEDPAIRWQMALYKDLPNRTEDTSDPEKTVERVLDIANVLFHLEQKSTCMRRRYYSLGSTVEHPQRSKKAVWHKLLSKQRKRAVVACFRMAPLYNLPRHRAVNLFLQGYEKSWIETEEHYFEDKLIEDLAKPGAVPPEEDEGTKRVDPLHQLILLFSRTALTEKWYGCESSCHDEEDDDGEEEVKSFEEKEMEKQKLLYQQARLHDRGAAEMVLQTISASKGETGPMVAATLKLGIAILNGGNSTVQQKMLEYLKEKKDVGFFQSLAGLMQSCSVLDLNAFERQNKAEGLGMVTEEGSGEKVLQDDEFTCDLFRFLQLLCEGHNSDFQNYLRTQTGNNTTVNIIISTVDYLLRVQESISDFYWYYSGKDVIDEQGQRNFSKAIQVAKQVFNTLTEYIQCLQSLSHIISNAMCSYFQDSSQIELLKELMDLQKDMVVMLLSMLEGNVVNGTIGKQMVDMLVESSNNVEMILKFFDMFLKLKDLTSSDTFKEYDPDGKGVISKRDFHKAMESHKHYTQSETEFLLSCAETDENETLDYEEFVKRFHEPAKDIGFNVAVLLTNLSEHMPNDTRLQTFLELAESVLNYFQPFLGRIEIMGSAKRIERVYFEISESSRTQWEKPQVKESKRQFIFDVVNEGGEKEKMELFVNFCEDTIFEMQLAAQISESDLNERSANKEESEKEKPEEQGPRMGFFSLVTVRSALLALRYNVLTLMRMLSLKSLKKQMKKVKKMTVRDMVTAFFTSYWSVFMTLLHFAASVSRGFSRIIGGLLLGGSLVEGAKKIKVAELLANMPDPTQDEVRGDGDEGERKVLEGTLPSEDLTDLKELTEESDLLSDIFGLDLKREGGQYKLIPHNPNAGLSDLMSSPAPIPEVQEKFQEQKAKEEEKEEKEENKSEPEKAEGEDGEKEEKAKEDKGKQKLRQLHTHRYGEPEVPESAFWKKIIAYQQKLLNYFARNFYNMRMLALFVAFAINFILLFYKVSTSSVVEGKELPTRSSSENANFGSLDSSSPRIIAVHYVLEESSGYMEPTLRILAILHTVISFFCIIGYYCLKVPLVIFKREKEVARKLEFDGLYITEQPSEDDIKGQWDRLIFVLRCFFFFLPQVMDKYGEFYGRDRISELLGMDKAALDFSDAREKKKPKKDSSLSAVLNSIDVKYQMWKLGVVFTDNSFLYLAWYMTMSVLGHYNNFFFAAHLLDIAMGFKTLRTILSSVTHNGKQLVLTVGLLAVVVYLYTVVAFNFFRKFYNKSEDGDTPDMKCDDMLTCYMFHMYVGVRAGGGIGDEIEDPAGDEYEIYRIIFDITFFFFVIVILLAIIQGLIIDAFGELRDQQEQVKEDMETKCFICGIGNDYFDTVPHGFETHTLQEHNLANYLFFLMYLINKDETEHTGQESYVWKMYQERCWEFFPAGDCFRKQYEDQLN", "assay": "[3H]ryanodine binding assay in cardiac SR vesicles", "design": "species or system porcine"}, "[4]": {"assay": "In vivo pharmacokinetic study", "design": "species or system mouse", "details": "3 mg/kg i.p."}, "[5]": {"system": "RyR2-mediated spontaneous Ca2+ release in Casq2-/- cardiomyocytes", "details": "read-out: IC50, intact cardiomyocyte assay; ref Batiste et al., 2019; cited from earlier work"}, "RyR2 [6]": {"target": "T1, RyR2", "details": "read-out: IC50, ryanodine binding assay; ref Batiste et al., 2019; cited from earlier work"}, "Casq2-/- mice [7]": {"system": "Casq2-/- mice", "details": "ref Blackwell et al., 2023, cited from earlier work"}, "[8]": {"details": "mice; ref Blackwell et al., 2023; cited from earlier work"}, "insect RyR": {"system": "insect RyR", "details": "ref Ohshiro et al., 2012; cited from earlier work"}, "RyR2 [9]": {"system": "RyR2", "details": "ref Ohshiro et al., 2012; cited from earlier work"}},
  "note": "pIC50: −log10 of the molar value. Like-named read-outs stand apart in the source and are kept apart here.",
  "data": [
    {"compound": "CCCCC[C@@H]1OC(=O)[C@@H](C)N(C)C(=O)[C@H](CCCCC)OC(=O)[C@@H](C)N(C)C(=O)[C@H](CCCCC)OC(=O)[C@@H](C)N(C)C1=O", "note": "(single isomer, unassigned) [ent-B1, ent-verticilide B1]", "values": [
      {"measurement": "QRS width", "setting": "Casq2-/- mice [1]", "result": "No changes"},
      {"measurement": "heart rate", "setting": "Casq2-/- mice [1]", "result": "No changes"},
      {"measurement": "stability in plasma", "setting": "Stability in plasma", "result": "stable"},
      {"measurement": "lipophilicity relative to ent-1", "setting": "[2]", "result": "loss of lipophilicity"},
      {"measurement": "pIC50", "setting": "RyR2 [3]", "result": 5.71},
      {"measurement": "maximal inhibition of [3H]ryanodine binding", "setting": "RyR2 [3]; incomplete maximal inhibition vs DMSO", "result": "approximately 30%"},
      {"measurement": "clinical observation during the PK study", "setting": "[4]; CD1 mice, up to 480 min", "result": "no abnormality"},
      {"measurement": "time of peak plasma concentration", "setting": "[4]; mice, plasma", "result": 10, "unit": "min"},
      {"measurement": "elimination half-life (t1/2)", "setting": "[4]; mice, plasma, mean", "result": 0.757, "unit": "h"}
    ]},
    {"compound": "ent-(+)-verticilide [ent-1]", "values": [
      {"measurement": "pIC50", "setting": "[5]", "result": 7.00},
      {"measurement": "pIC50", "setting": "RyR2 [6]", "result": 7.00},
      {"measurement": "VT incidence", "setting": "Casq2-/- mice [7]; 30 mg/kg, same arrhythmia induction protocol", "result": "~35", "unit": "%"},
      {"measurement": "antiarrhythmic efficacy in vivo", "setting": "Casq2-/- mice [7]; single dose study at 3 and 30 mg/kg i.p.", "result": "had antiarrhythmic efficacy"},
      {"measurement": "half-life (t1/2)", "setting": "[8]", "result": 6.92, "unit": "h"}
    ]},
    {"compound": "verticilide B1", "values": [
      {"measurement": "activity against insect RyR", "setting": "insect RyR", "result": "not active"},
      {"measurement": "activity against RyR2", "setting": "RyR2 [9]", "result": "not active"}
    ]}
  ]
}
